Test results: patent US12252644B2, “Polarizer and image display device” (FUJIFILM Corporation, priority 2019, dated 2025)

test: Measurement of maximum absorption wavelength; format: physicochemical; conditions: solution in a good solvent, spectrophotometer UV-3150, 250 to 800 nm
Procedure: The maximum absorption wavelength (nm) of the dichroic material in the present specification is acquired from an ultraviolet visible spectrum in a wavelength range of 380 to 800 nm measured by a spectrophotometer using a solution prepared by dissolving the dichroic material in a good solvent.
The maximum absorption wavelengths of the dichroic materials used in the examples and the comparative examples were measured. The maximum absorption wavelength was acquired from the ultraviolet visible light spectrum in a wavelength range of 250 to 800 nm which was measured by a spectrophotometer (product name, “UV-3150”, manufactured by Shimadzu Corporation) using a solution in which the dichroic material was dissolved in a good solvent.

| SMILES | Third dichroic material maximum absorption wavelength [nm] | Second dichroic material maximum absorption wavelength [nm] | First dichroic material maximum absorption wavelength [nm] |
| --- | --- | --- | --- |
| CCC(=O)OCCN(C)c1ccc(N=Nc2ccc(N=Nc3ccc(OCCCCCCCCCOC(C)=O)cc3)cc2)cc1 [Example M-1] | – | 466 | – |
| C=CC(=O)OCCN(CC)c1ccc(N=Nc2ccc(N=Nc3ccc(OCCCCCCCCCOC(=O)CC)cc3)cc2)cc1 [Example M-3] | – | 471 | – |
| CC(=O)OCCCCCCCCCOc1ccc(N=Nc2ccc(N=Nc3ccc(N(C)CCOC(C)=O)cc3)cc2)cc1 [Example M-6] | – | 465 | – |
| CCC(=O)OCCCCCCCCCOc1ccc(N=Nc2ccc(N=Nc3ccc(N(CC)CCOC(=O)CC)cc3)cc2)cc1 [Example M-2] | – | 471 | – |
| C=CC(=O)OCCN(CC)c1ccc(N=Nc2nc3sc(N=Nc4ccc(OCCCCCCCCCOC(C)=O)cc4)cc3s2)cc1 [Example C-1] | – | – | 591 |
| CCOC(=O)CCCCOc1ccc(N=Nc2ccc(N=Nc3ccc(N=Nc4ccc(OCCCCC(=O)OCC)cc4)cc3C)cc2)cc1 [Example Y-2] | 418 | – | – |

Next, values leading:

| Third dichroic material maximum absorption wavelength [nm] | Second dichroic material maximum absorption wavelength [nm] | First dichroic material maximum absorption wavelength [nm] | SMILES |
| --- | --- | --- | --- |
| 418 | – | – | C=CC(=O)OCCCCOc1ccc(N=Nc2ccc(N=Nc3ccc(N=Nc4ccc(OCCCCOC(C)=O)cc4)cc3)c(C)c2)cc1 [Example Y-1] |
| – | 460 | – | CCC(=O)OCCCCCCCCCOc1ccc(N=Nc2ccc(N=Nc3ccc(N(CC)CCC#N)cc3)cc2)c(Cl)c1 [Example M-4] |
| – | 484 | – | CCN(CC)c1ccc(N=Nc2ccc(N=Nc3ccc(OCCCCCCCCCOC(C)=O)cc3)cc2)cc1 [Example M-5] |
